Reference: patent US20230330059A1, “3-PHENYL-2H-CHROMENE DERIVATIVE AND PHARMACEUTICAL COMPOSITION FOR PREVENTING OR TREATING ALZHEIMER'S, CONTAINING SAME” (NEUROBIONET, INC., priority 2020, published 2023)

Experiments:
[1] = target: T1, Aβ42 (Homo sapiens, UniProt P05067); test: Thioflavin T (ThT) assay of Aβ fibrosis; type: biochemical; details: ThT fluorescence, 37° C., 180 minutes; compared to negative control and Daidzein or Equol; FIG. 1
T1 construct: 1,1,1,3,3,3-hexafluoro-2-propanol-treated Aβ42 (# A-1163-1, rPeptide); purchased rPeptide A-1163-1
Experimental: ThT assay was used to examine whether the drugs have an inhibitory activity against the fibrosis of Aβ. Lyophilized AggreSure AβAS-72216, AnaSpec) was dissolved in cold Tris buffered saline (TBS; pH 7.2) to prepare a 160 µg/mL Aβ solution. The solution was aliquoted into 1.5 mL tubes and stored at -80° C. until use. ThT (# T3516, Sigma-Aldrich) and drug candidates were dissolved in TBS to form a final concentration of 500 µM. The diluted aggregates were added to […] black plates (Nunc # 242764), mixed with ThT and drug candidates, and incubated at 37° C. for 180 minutes. Fluorescence signals were measured every 5 minutes using a plate reader (Victor3, PerkinElmer).

[2] = target: T1, Aβ42; test: Multimer detection system (MDS) assay of Aβ42 oligomerization; type: biochemical; details: compounds 100 µM, Aβ42 200 µg/mL; compared to negative control and Daidzein or Equol; FIG. 2
Experimental: The drugs selected on the basis of the ThT assay results were evaluated for inhibitory activity against the oligomerization of Aβ42, using a multimer detection system (MDS) assay. Immediately after being dissolved in 1% NH4OH (# 221228, Sigma-Aldrich), 1,1,1,3,3,3-hexafluoro-2-propanol-treated Aβ42 (# A-1163-1, rPeptide) was diluted in 500 µL of phosphate-buffered saline (PBS; pH 7.5), aliquoted into 1.5-mL tubes, and stored at -80° C. until use. Aβ42 and the compounds were mixed with PBS to make final concentrations of 200 µg/mL and 100 µM, respectively, and incubated at room temperature. Aggregation of Aβ42 was terminated by maintaining at -80° C.
After the reaction between each drug and Aβ42, the oligomeric form of Aβ42 was measured for each time to measure inhibitory effects on the oligomer.

[3] = system: nitric oxide production in LPS-treated primary microglia; test: Nitric oxide production (Griess) in LPS-treated primary microglia; type: cell-based, ICR mice; details: FIG. 9a
Experimental: BV2 cells were seeded at a density of 4 x 10^5 cells/well into 96-well plates, and primary microglial cells isolated from the brain of […] ICR mice were seeded at a density of 4 x 10^5 cells/well into 24-well plates.
After stabilization for 24 hours, the cells were treated with various concentrations (1 and 5 µM) of daidzein, o-desmethylangolensin, S-equal, SPA1413, and SPA1426 for 30 minutes and then with LPS (100 ng/ml) for 24 hours at 37° C. The culture media were collected and measured for NO production using a Griess reagent solution (1% sulfanilamide and 0.1% N-1-naphthyl ethylenediamine dihydrochloride in 5% phosphoric acid). Briefly, a total of 50 µL of the supernatant was transferred to new 96-well plates and mixed with the same volume of the Griess reagent solution, followed by measuring OD at 570 nm. In addition, the cell viability was assayed in the same manner as in Experimental Example 2.

[4] = system: LPS-treated BV2 cells; test: Cell viability of LPS-treated BV2 cells; type: cell-based, mouse; details: FIG. 8b
Experimental: Mouse-derived microglia (BV2 cells) purchased from the Korean Cell Line Bank were seeded at a density of 4x10^5 cells/well into 96-well plates, each well containing DMEM (Dulbecco’s Modified Eagle’s Media) supplemented with 10% FBS and 1% antibiotics, and stabilized by incubation for 24 hours. Thereafter, the cells were treated for 24 hours with various concentrations (0.5, 1, and 5 µM) of daidzein, o-desmethylangolensin (O-DMA), S-equal, SPA1413, and SPA1426. After removal of the medium, the cells were treated 0.5 mg/ml 3-(4,5-dimethylthiazol-2-yl)-2,5-diphenyltetrazolium bromide (MTT) solution 1 hour. The reduced formazan was dissolved in 150 µl of dimethyl sulfoxide (DMSO) and absorbance was read at 570 nm in a microspectrophotometer to determine cell viability. Cell viability of the cells treated with each sample was determined relative to that of the untreated normal control (Control), which was set to be 100%, and the results are depicted in FIGS. 3 and 4 (upper).
After stabilization for 24 hours, the cells were treated with various concentrations (1 and 5 µM) of daidzein, o-desmethylangolensin, S-equal, SPA1413, and SPA1426 for 30 minutes and then with LPS (100 ng/ml) for 24 hours at 37° C. […]

[5] = system: COX-2; test: COX-2 protein expression (western blot) in LPS-treated BV2 cells; type: cell-based, mouse; details: 5 µM, LPS (100 ng/ml) 24 hours, FIG. 11a
Experimental: (§1) BV2 cells were aliquoted at a density of 1x10^6 cells/well into 60 mm dishes and stabilized for 24 hours. Thereafter, the cells were treated with 5 µM of S-equal, SPA1413, or SPA1426 for 30 minutes and then with LPS (100 ng/ml) for 24 hours at 37° C. After being cultured to reach 100% confluence, the cells were washed with PBS and lysed with a lysis buffer (PRO-PREP™ Protein Extraction Solution, Intron Biotechnology, Seongnam, Korea). With bovine serum albumin (BSA) serving as a standard, the protein contents of the lysate supernatants were measured by Bio-Rad Protein Assay (Bio-Rad, California, USA) to determine the total protein content in each sample. Afterwards, each of the samples was loaded in a protein amount of 30 µg on a 10-12% SDS-PAGE gel and run for electrophoresis. The electrophorized proteins were transferred to a PVDF membrane which was then blocked with 5% skim milk and incubated with antibodies to COX-2 or iNOS (Cell Signaling Technologies, Massachusetts, USA). Detection was conducted with a ChemiDoc XRS+ imaging system (Bio-Rad, CA, USA).

[6] = system: iNOS; test: iNOS protein expression (western blot) in LPS-treated BV2 cells; type: cell-based, mouse; details: 5 µM, LPS (100 ng/ml) 24 hours, FIG. 11b
Experimental: as §1

[7] = system: JNK; test: JNK protein expression (western blot) in LPS-treated BV2 cells; type: cell-based, mouse; details: 5 µM, compared to the LPS-treated group, FIG. 12a
Experimental: as §1, with “JNK” for “COX-2”, “p38” for “iNOS”

T1 sequence (P05067 672-713 limits assumed): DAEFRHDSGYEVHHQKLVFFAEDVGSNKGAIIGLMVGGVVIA

| Structure (SMILES) | inhibition of Aβ42 fibrosis [1] | inhibition of Aβ42 oligomerization [2] | NO production [3] | cell viability compared to the group treated with LPS [4] | expression level of COX-2 [5] | expression level of iNOS [6] | expression level of JNK protein [7] |
| --- | --- | --- | --- | --- | --- | --- | --- |
| Oc1ccc(C2=Cc3ccc(O)cc3OC2)cc1 [SPA1413, 3-(4-Hydroxyphenyl)-2H-chromen-7-ol] | showed the effect of inhibiting Aβ42 fibrosis | exhibited inhibitory effects on Aβ42 oligomerization | decreased NO production in dose-dependent manners | increased | significantly decreased | significantly decreased | decreased |
| CCCC(=O)Oc1ccc(C2=Cc3ccc(OC(=O)CCC)cc3OC2)cc1 [SPA1426, 4-(7-(butyryloxy)-2H-chromen-3-yl)phenyl butyrate] | showed the effect of inhibiting Aβ42 fibrosis | exhibited inhibitory effects on Aβ42 oligomerization | decreased NO production in dose-dependent manners | increased | significantly decreased | significantly decreased | decreased |
